Measured values as given in patent US5530126A, “Process for the preparation of substituted 6-(pyrazol-3yl)-1,4-benzoxazin-3-ones” (Monsanto Company, priority 1994, dated 1996).

What was measured:
Assay type in all cases: in vivo
Indian Mustard [1] = experiment: Pre-emergence herbicide test; conditions: Brassica juncea, read-out: % plant inhibition (Inmu); for inhibition at 1120 g/ha: 1.12 kg/ha
Method in brief: (§1)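 Values are percent inhibition assessed about 10-14 days (usually 11) after a known amount of test compound, carried in acetone or water, was applied to seeds on compacted topsoil and covered with untreated soil, with greenhouse sub-irrigation.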

Downy Brome [2] = experiment: Pre-emergence herbicide test; conditions: Bromus tectorum, read-out: % plant inhibition (Dobr); for inhibition at 1120 g/ha: 1.12 kg/ha
Method in brief: as §1

Annual bluegrass [3] = experiment: Pre-emergence herbicide test; conditions: read-out: % plant inhibition (Anbg); for inhibition at 1120 g/ha: 1.12 kg/ha
Method in brief: as §1

Barnyardgrass [4] = experiment: Pre-emergence herbicide test; conditions: Echinochloa crus-galli, read-out: % plant inhibition (Bygr); for inhibition at 1120 g/ha: 1.12 kg/ha
Method in brief: as §1

Cocklebur [5] = experiment: Pre-emergence herbicide test; conditions: Xanthium strumarium, read-out: % plant inhibition (Cobu); for inhibition at 1120 g/ha: 1.12 kg/ha
Method in brief: as §1

Velvetleaf [6] = experiment: Pre-emergence herbicide test; conditions: Abutilon theophrasti, read-out: % plant inhibition (Vele); for inhibition at 1120 g/ha: 1.12 kg/ha
Method in brief: as §1

Seedling johnsongrass [7] = experiment: Pre-emergence herbicide test; conditions: Sorghum halepense, read-out: % plant inhibition (Sejg); for inhibition at 1120 g/ha: 1.12 kg/ha
Method in brief: as §1

Wild buckwheat [8] = experiment: Pre-emergence herbicide test; conditions: Fallopia convolvulus, read-out: % plant inhibition (Wibw); for inhibition at 1120 g/ha: 1.12 kg/ha
Method in brief: as §1

Morningglory [9] = experiment: Pre-emergence herbicide test; conditions: Ipomoea, read-out: % plant inhibition (Mogl); for inhibition at 1120 g/ha: 1.12 kg/ha
Method in brief: as §1

Yellow nutsedge [10] = experiment: Pre-emergence herbicide test; conditions: Cyperus, read-out: % plant inhibition (Yens); for inhibition at 1120 g/ha: 1.12 kg/ha
Method in brief: as §1

[11] = tested on: resistant broadleaf weeds such as pigweed, cocklebur, velvetleaf and hemp sesbania; experiment: Control of resistant broadleaf weeds in crops; conditions: in various crops such as corn, soybean and nuts and in forestry
Indian Mustard [12] = experiment: Post-emergence herbicide test; conditions: Brassica juncea, read-out: % plant inhibition (Inmu); for inhibition at 1120 g/ha: 1.12 kg/ha
Method in brief: (§2)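 Foliar spray trial in greenhouse pans: two- to three-week-old plants treated at 200 gallons/acre by atomizer, spray containing about 0.4% emulsifier. Percent inhibition compared with untreated controls was recorded around day 11.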

Downy Brome [13] = experiment: Post-emergence herbicide test; conditions: Bromus tectorum, read-out: % plant inhibition (Dobr); for inhibition at 1120 g/ha: 1.12 kg/ha
Method in brief: as §2

Annual bluegrass [14] = experiment: Post-emergence herbicide test; conditions: read-out: % plant inhibition (Anbg); for inhibition at 1120 g/ha: 1.12 kg/ha
Method in brief: as §2

Barnyardgrass [15] = experiment: Post-emergence herbicide test; conditions: Echinochloa crus-galli, read-out: % plant inhibition (Bygr); for inhibition at 1120 g/ha: 1.12 kg/ha
Method in brief: as §2

Cocklebur [16] = experiment: Post-emergence herbicide test; conditions: Xanthium strumarium, read-out: % plant inhibition (Cobu); for inhibition at 1120 g/ha: 1.12 kg/ha
Method in brief: as §2

Velvetleaf [17] = experiment: Post-emergence herbicide test; conditions: Abutilon theophrasti, read-out: % plant inhibition (Vele); for inhibition at 1120 g/ha: 1.12 kg/ha
Method in brief: as §2

Seedling johnsongrass [18] = experiment: Post-emergence herbicide test; conditions: Sorghum halepense, read-out: % plant inhibition (Sejg); for inhibition at 1120 g/ha: 1.12 kg/ha
Method in brief: as §2

Wild buckwheat [19] = experiment: Post-emergence herbicide test; conditions: Fallopia convolvulus, read-out: % plant inhibition (Wibw); for inhibition at 1120 g/ha: 1.12 kg/ha
Method in brief: as §2

Morningglory [20] = experiment: Post-emergence herbicide test; conditions: Ipomoea, read-out: % plant inhibition (Mogl); for inhibition at 1120 g/ha: 1.12 kg/ha
Method in brief: as §2

Yellow nutsedge [21] = experiment: Post-emergence herbicide test; conditions: Cyperus, read-out: % plant inhibition (Yens); for inhibition at 1120 g/ha: 1.12 kg/ha
Method in brief: as §2

Row | Compound | inhibition at 1120 g/ha (Indian Mustard [1]) [%] | inhibition at 1120 g/ha (Downy Brome [2]) [%] | inhibition at 1120 g/ha (Annual bluegrass [3]) [%] | inhibition at 1120 g/ha (Barnyardgrass [4]) [%] | inhibition at 1120 g/ha (Cocklebur [5]) [%] | inhibition at 1120 g/ha (Velvetleaf [6]) [%] | inhibition at 1120 g/ha (Seedling johnsongrass [7]) [%] | inhibition at 1120 g/ha (Wild buckwheat [8]) [%] | inhibition at 1120 g/ha (Morningglory [9]) [%] | inhibition at 1120 g/ha (Yellow nutsedge [10]) [%] | control of resistant broadleaf weeds [11] | inhibition at 1120 g/ha (Indian Mustard [12]) [%] | inhibition at 1120 g/ha (Downy Brome [13]) [%] | inhibition at 1120 g/ha (Annual bluegrass [14]) [%] | inhibition at 1120 g/ha (Barnyardgrass [15]) [%] | inhibition at 1120 g/ha (Cocklebur [16]) [%] | inhibition at 1120 g/ha (Velvetleaf [17]) [%] | inhibition at 1120 g/ha (Seedling johnsongrass [18]) [%] | inhibition at 1120 g/ha (Wild buckwheat [19]) [%] | inhibition at 1120 g/ha (Morningglory [20]) [%] | other results
1 | CC(C)OC(=O)c1cc(-c2nn(C)c(C(F)(F)F)c2Cl)c(F)cc1Cl [Compound 135, 2-chloro-5-[4-chloro-1-methyl-5-(trifluoromethyl)-1H-pyrazol-3-yl]-4-fluorobenzoic acid, 1-methylethyl ester] | 100 | 100 | 100 | 100 | 90 | 100 | 100 | 100 | 90 | 0 | outstanding control | 100 | 100 | 100 | 100 | 100 | 100 | 100 | 100 | 100 | inhibition at 1120 g/ha (Yellow nutsedge [21]): 20%
2 | COC(=O)C(C)OC(=O)c1cc(-c2nn(C)c(C(F)(F)F)c2Cl)c(F)cc1Cl (stereo not drawn) [Compound 137, 2-Chloro-5-(4-chloro-1-methyl-5-(trifluoromethyl)-1H-pyrazol-3-yl)-4-fluorobenzoic acid, 2-methoxy-1-methyl-2-oxoethyl ester] | 100 | 80 | 70 | 70 | 100 | 100 | 50 | 90 | 100 | 20 | outstanding control | 100 | 100 | 100 | 100 | 100 | 100 | 100 | 100 | 100 | inhibition at 1120 g/ha (Yellow nutsedge [21]): 20%
3 | C#CCOc1cc(-c2nn(C)c(C(F)(F)F)c2Cl)c(F)cc1Cl [Compound 261, 4-Chloro-3-(4-chloro-2-fluoro-5-propargyl-oxyphenyl)-1-methyl-5-(trifluoromethyl)-1H-pyrazole] | – | – | – | – | – | – | – | – | – | – | outstanding control | – | – | – | – | – | – | – | – | – | inhibition at 11210 g/ha (Indian Mustard [1]; 11.21 kg/ha): 100%; inhibition at 11210 g/ha (Downy Brome [2]; 11.21 kg/ha): 100%; inhibition at 11210 g/ha (Annual bluegrass [3]; 11.21 kg/ha): 100%; inhibition at 11210 g/ha (Barnyardgrass [4]; 11.21 kg/ha): 100%; inhibition at 11210 g/ha (Cocklebur [5]; 11.21 kg/ha): 100%; inhibition at 11210 g/ha (Velvetleaf [6]; 11.21 kg/ha): 100%; inhibition at 11210 g/ha (Seedling johnsongrass [7]; 11.21 kg/ha): 100%; inhibition at 11210 g/ha (Wild buckwheat [8]; 11.21 kg/ha): 100%; inhibition at 11210 g/ha (Morningglory [9]; 11.21 kg/ha): 100%; inhibition at 11210 g/ha (Yellow nutsedge [10]; 11.21 kg/ha): 30%; inhibition at 11210 g/ha (Indian Mustard [12]; 11.21 kg/ha): 100%; inhibition at 11210 g/ha (Downy Brome [13]; 11.21 kg/ha): 100%; inhibition at 11210 g/ha (Annual bluegrass [14]; 11.21 kg/ha): 100%; inhibition at 11210 g/ha (Barnyardgrass [15]; 11.21 kg/ha): 100%; inhibition at 11210 g/ha (Cocklebur [16]; 11.21 kg/ha): 100%; inhibition at 11210 g/ha (Velvetleaf [17]; 11.21 kg/ha): 100%; inhibition at 11210 g/ha (Seedling johnsongrass [18]; 11.21 kg/ha): 100%; inhibition at 11210 g/ha (Wild buckwheat [19]; 11.21 kg/ha): 100%; inhibition at 11210 g/ha (Morningglory [20]; 11.21 kg/ha): 100%; inhibition at 11210 g/ha (Yellow nutsedge [21]; 11.21 kg/ha): 20%
4 | CC(C)OC(=O)COc1cc(-c2nn(C)c(C(F)(F)F)c2Cl)c(F)cc1Cl [Compound 282, (2-Chloro-5-(4-chloro-1-methyl-5-(trifluoromethyl)-1H-pyrazol-3-yl)-4-fluorophenoxy)acetic acid, 1-methylethyl ester] | 30 | 20 | 20 | 20 | 30 | 100 | 30 | 90 | 90 | 40 | outstanding control | 10 | 0 | 0 | 30 | 100 | 100 | 20 | 100 | 70 | inhibition at 1120 g/ha (Yellow nutsedge [21]): 10%
5 | C#CCN1C(=O)COc2cc(F)c(-c3nn(C)c(C(F)(F)F)c3Cl)cc21 [Compound 446, 6-(4-Chloro-1-methyl-5-(trifluoromethyl)-1H-pyrazol-3-yl)-7-fluoro-4-(2-propynyl)-2H-1,4-benzoxazin-3-(4H)-one] | 100 | 90 | 100 | 80 | 100 | 90 | 80 | 100 | 100 | 60 | outstanding control | 100 | 100 | 100 | 100 | 100 | 100 | 90 | 100 | 100 | inhibition at 1120 g/ha (Yellow nutsedge [21]): 40%
